Tests used:
human S1P3 receptor = human S1P3 receptor (Homo sapiens (Human), UniProt Q99500); test: In vitro functional activity (agonism) on human S1P3 receptors, CHO-human-S1P3-Aequorin assay; assay type: cell-based; conditions: aequorin luminescence; for EC50: read-out: S1P3 pEC50 (converted)
Protocol: In Vitro Functional Activity (Agonism) on Human S1P3 Receptors
The CHO-human-S1P3-Aeqorin assay (CHO/Gα16/AEQ/h-S1P3) was established at Solvay Pharmaceuticals. […] This luminescent response is dependent on the agonist concentration. Luminescence is measured using the MicroBeta Jet (Perkin Elmer). Agonistic effects of compounds are expressed as pEC50.

human S1P5 receptor = human S1P5 receptor (Homo sapiens (Human), UniProt Q9H228); test: In vitro functional activity (agonism) on human S1P5 receptors, CHO-human-S1P5-Aequorin assay; assay type: cell-based; conditions: aequorin luminescence; for EC50: read-out: S1P5 pEC50 (converted)
human S1P5 receptor, sequence (Q9H228 whole entry): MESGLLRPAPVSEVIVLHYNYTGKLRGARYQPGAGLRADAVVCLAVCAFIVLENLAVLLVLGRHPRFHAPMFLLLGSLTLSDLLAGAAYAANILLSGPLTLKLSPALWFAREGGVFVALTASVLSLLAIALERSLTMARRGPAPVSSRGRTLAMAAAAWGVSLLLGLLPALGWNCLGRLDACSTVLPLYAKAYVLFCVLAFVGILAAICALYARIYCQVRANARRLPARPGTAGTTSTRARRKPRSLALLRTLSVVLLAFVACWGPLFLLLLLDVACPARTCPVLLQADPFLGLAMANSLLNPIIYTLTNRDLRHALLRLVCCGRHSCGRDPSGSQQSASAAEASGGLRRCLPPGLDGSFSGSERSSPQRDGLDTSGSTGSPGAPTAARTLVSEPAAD
Protocol: In Vitro Functional Activity (Agonism) on Human 51P5 Receptors
The CHO-human-S1P5-Aeqorin assay was bought from Euroscreen, Brussels (Euroscreen, Technical dossier, Human Lysophospholid S1P5 (Edg8) receptor, DNA clone and CHO AequoScreen™ recombinant cell-line, catalog n°: ES-593-A, September 2006). Human-S1P5-Aequorin cells express mitochondrial targeted apo-Aequorin. […] This luminescent response is dependent on the agonist concentration. Luminescence is measured using the MicroBeta Jet (Perkin Elmer). Agonistic effects of compounds are expressed as pEC50.

human S1P1 receptor [1] = target: T1, human S1P1 receptor (Homo sapiens (Human), UniProt P21453); conditions: agonism, determined using method A (aequorin)
T1 sequence (P21453 whole entry): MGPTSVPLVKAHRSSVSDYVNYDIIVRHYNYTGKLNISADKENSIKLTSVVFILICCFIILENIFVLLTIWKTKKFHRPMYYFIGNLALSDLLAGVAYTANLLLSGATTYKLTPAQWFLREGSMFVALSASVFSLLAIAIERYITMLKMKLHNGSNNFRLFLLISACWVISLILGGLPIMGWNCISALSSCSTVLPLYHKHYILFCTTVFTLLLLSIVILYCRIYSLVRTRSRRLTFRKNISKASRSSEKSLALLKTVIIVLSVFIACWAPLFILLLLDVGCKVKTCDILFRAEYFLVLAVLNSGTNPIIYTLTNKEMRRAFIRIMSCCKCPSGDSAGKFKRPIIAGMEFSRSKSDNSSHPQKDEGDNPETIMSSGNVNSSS
Source text: In Vitro Functional Activity (Agonism) on Human S1P1 Receptors (Method A)
The CHO-K1-human-S1P1-Acqorin assay was bought from Euroscreen Fast, Brussels (Euroscreen, Technical dossier, Human S1P1 (Edg1) receptor, DNA clone and CHO-K1 AequoScreen™ recombinant cell-line, catalog n°: FAST-0197 L, February 2010). Human-S1P1-Aequorin cells express mitochondrial targeted apo-Aequorin. Cells have to be loaded with coelanterazine, in order to reconstitute active Aequorin. After binding of agonists to the human S1P1 receptor the intracellular calcium concentration increases and binding of calcium to the apo-Aequorin/coelenterazine complex leads to an oxidation reaction of coelenterazine, which results in the production of apo-Aequorin, coelenteramide, CO2 and light ([…]max 469 nm). This luminescent response is dependent on the agonist concentration. Luminescence is measured using the MicroBeta Jet (Perkin Elmer). Agonistic effects of compounds are expressed as pEC50. Compounds were tested at a 10 points half log concentration range, and 2 independent experiments were performed in single point's measurements.

human S1P1 receptor [2] = target: T1, human S1P1 receptor; test: In vitro functional activity (agonism) on human S1P1 receptors (method B), CHO-K1-human S1P1 cAMP assay; assay type: cell-based; conditions: determined using method B (cAMP, forskolin); for EC50: read-out: S1P1^B pEC50 (converted)
Protocol: The CHO-K1-Human S1P1-c-AMP assay was performed at Euroscreenfast, Brussels (Euroscreen, Human S1P1 coupling Gi/0, (Edg1) receptor, catalog no: FAST-0197C, December 2009).
Recombinant CHO-K1 cells expressing human S1P1, grown to mid-log Phase in culture media without antibiotics, detached, centrifuged and re-suspended. For agonist testing cells are mixed with compound and Forskolin and incubated at room temperature. Cells are lyses and cAMP concentration are estimated, according to the manufacturer specification, With the HTRF kit from CIS-BIO International (cat n°62AM2PEB).
Agonistic effects of compounds are expressed as a percentage of the activity of the reference compound at its EC100 concentration, EC50 is calculated and results are reported as pEC50.

human S1P3 receptor, sequence (Q99500 whole entry): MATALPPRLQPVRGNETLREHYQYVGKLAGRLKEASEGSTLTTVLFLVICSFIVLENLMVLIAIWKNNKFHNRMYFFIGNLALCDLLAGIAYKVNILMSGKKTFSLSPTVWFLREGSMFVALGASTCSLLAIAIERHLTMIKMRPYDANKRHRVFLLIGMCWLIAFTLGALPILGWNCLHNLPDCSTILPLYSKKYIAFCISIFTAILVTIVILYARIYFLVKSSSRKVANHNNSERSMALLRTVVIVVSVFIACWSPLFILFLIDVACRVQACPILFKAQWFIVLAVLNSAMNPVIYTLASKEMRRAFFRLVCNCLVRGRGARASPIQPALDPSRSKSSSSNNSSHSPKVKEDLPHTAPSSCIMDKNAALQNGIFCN

**Q.** Which “S1P3 pEC50” value (human S1P3 receptor) does the source give for O=C(O)C1CC(N2CCc3oc(-c4ccc(OCc5ccc(OC(F)(F)F)cc5)cc4)nc3C2)C1 (stereo not drawn) [Compound 306, 3-{2-[4-(4-Trifluoromethoxybenzyloxy)-phenyl]-6,7-dihydro-H-oxazolo[4,5-c]pyridine-5-yl}-cyclobutane carboxylic acid] here?
**A.** <5.0

**Q.** And the “S1P5 pEC50” value (human S1P5 receptor)?
**A.** 8.1

**Q.** What about the “S1P1^A pEC50” value (human S1P1 receptor [1]) of the same compound?
**A.** <5

**Q.** What does the source list for CC(CN1CCc2oc(-c3ccc(OCc4ccc(C(F)(F)F)cc4)cc3)nc2C1)C(=O)O (stereo not drawn) [Compound 156, 3-{2-[4-(4-Trifluoromethyl-benzyloxy)-phenyl]-6,7-dihydro-H-oxazolo[4,5-c]pyridine-5-yl}-2-methyl-propionic acid]?
**A.** S1P3 pEC50 (human S1P3 receptor): 5.5; S1P5 pEC50 (human S1P5 receptor): 8.4; S1P1^B pEC50 (human S1P1 receptor [2]): 6.2

**Q.** With O=C(O)CCN1CCc2oc(-c3ccc(OCc4ccccc4)cc3)nc2C1 [Compound 47] as the compound, how does the “S1P3 pEC50” value (human S1P3 receptor) read?
**A.** <5

**Q.** And the “S1P5 pEC50” value (human S1P5 receptor)?
**A.** 8.0

**Q.** And the “S1P1^B pEC50” value (human S1P1 receptor [2])?
**A.** <5.5

**Q.** O=C(O)C1CC(N2CCc3oc(-c4ccc(OCc5ccc(OC(F)(F)F)cc5)cc4)nc3C2)C1 (stereo not drawn) [Compound 307, 3-{2-[4-(4-Trifluoromethoxybenzyloxy)-phenyl]-6,7-dihydro-H-oxazolo[4,5-c]pyridine-5-yl}-cyclobutane carboxylic acid] was tested. Which “S1P3 pEC50” value (human S1P3 receptor) did it give?
**A.** <5.0

**Q.** And the “S1P5 pEC50” value (human S1P5 receptor)?
**A.** 7.3

**Q.** And the “S1P1^A pEC50” value (human S1P1 receptor [1])?
**A.** <5

**Q.** What does the source list for O=C(O)CCCN1CCc2oc(-c3ccc(OCc4ccccc4)cc3)nc2C1 [Compound 53, 4-{2-[4-Benzyloxy-phenyl]-6,7-dihydro-H-oxazolo[4,5-c]pyridine-5-yl}-butyric acid]?
**A.** S1P3 pEC50 (human S1P3 receptor): <5; S1P5 pEC50 (human S1P5 receptor): 7.9; S1P1^A pEC50 (human S1P1 receptor [1]): <4.5

**Q.** CC(CN1CCc2oc(-c3ccc(OCc4ccc(Cl)cc4)cc3)nc2C1)C(=O)O (stereo not drawn) [Compound 157, 3-{2-[4-(4-Chloro-benzyloxy)-phenyl]-6,7-dihydro-H-oxazolo[4,5-c]pyridine-5-yl}-2-methyl-propionic acid] was tested. Which “S1P3 pEC50” value (human S1P3 receptor) did it give?
**A.** 5.3

**Q.** And the “S1P5 pEC50” value (human S1P5 receptor)?
**A.** 8.1

**Q.** What about the “S1P1^B pEC50” value (human S1P1 receptor [2]) of the same compound?
**A.** 6.2

**Q.** With CC(CC(=O)O)N1CCc2oc(-c3ccc(OCc4cccc(F)c4F)cc3)nc2C1 (stereo not drawn) [Compound 175] as the compound, how does the “S1P3 pEC50” value (human S1P3 receptor) read?
**A.** 5.8

**Q.** And the “S1P5 pEC50” value (human S1P5 receptor)?
**A.** 8.3

**Q.** And the “S1P1^B pEC50” value (human S1P1 receptor [2])?
**A.** <5.5

**Q.** CC(CN1CCc2oc(-c3ccc(OCc4ccccc4)cc3)nc2C1)C(=O)O (stereo not drawn) [Compound 146, 3-[2-(4-Benzyloxy-phenyl)-6,7-dihydro-H-oxazolo[4,5-c]pyridine-5-yl]-2-methyl-propionic acid] was tested. Which “S1P3 pEC50” value (human S1P3 receptor) did it give?
**A.** <5.0

**Q.** What about the “S1P5 pEC50” value (human S1P5 receptor) of the same compound?
**A.** 7.8

**Q.** What about the “S1P1^B pEC50” value (human S1P1 receptor [2]) of the same compound?
**A.** <5.5

**Q.** How did the EC50 (human S1P3 receptor) turn out when O=C(O)CCCN1CCc2oc(-c3ccc(OCc4ccccc4F)cc3)cc2C1 [Compound 35, 4-{2-[4-(2-Fluoro-benzyloxy)-phenyl]-6,7-dihydro-4H-furo[3,2-c]pyridine-5-yl}-butyric acid] was run?
**A.** 5010 nM

**Q.** And the EC50 (human S1P5 receptor)?
**A.** 5.01 nM

**Q.** What about the EC50 (human S1P1 receptor [2]) of the same compound?
**A.** 251 nM

**Q.** Which “S1P3 pEC50” value (human S1P3 receptor) does the source give for O=C(O)CCCN1CCc2oc(-c3ccc(OCc4ccc(C(F)(F)F)cc4)cc3F)nc2C1 [Compound 85, 4-{2-[4-(4-Trifluoromethyl-benzyloxy)-2-fluoro-phenyl]-6,7-dihydro-H-oxazolo[4,5-c]pyridine-5-yl}-butyric acid] here?
**A.** 6.3

**Q.** What about the “S1P5 pEC50” value (human S1P5 receptor) of the same compound?
**A.** 8.6

**Q.** What about the “S1P1^B pEC50” value (human S1P1 receptor [2]) of the same compound?
**A.** <5.5

**Q.** O=C(O)CCCN1CCc2oc(-c3ccc(OCc4ccc(Cl)cc4)c(F)c3)nc2C1 [Compound 211, 4-{2-[4-(4-Chloro-benzyloxy)-3-fluoro-phenyl]-6,7-dihydro-H-oxazolo[4,5-c]pyridine-5-yl}-butyric acid] was tested. Which “S1P3 pEC50” value (human S1P3 receptor) did it give?
**A.** <5.0

**Q.** What about the “S1P5 pEC50” value (human S1P5 receptor) of the same compound?
**A.** 8.3

**Q.** What about the “S1P1^B pEC50” value (human S1P1 receptor [2]) of the same compound?
**A.** 6.1

**Q.** Which results are given for O=C(O)C1CC(N2CCc3oc(-c4ccc(OCc5ccc(F)c(F)c5)cc4)nc3C2)C1 (stereo not drawn) [Compound 278, 3-{2-[4-(3,4-Difluorobenzyloxy)-phenyl]-6,7-dihydro-H-oxazolo[4,5-c]pyridine-5-yl}-cyclobutane carboxylic acid]?
**A.** S1P3 pEC50 (human S1P3 receptor): <5; S1P5 pEC50 (human S1P5 receptor): 7.4; S1P1^A pEC50 (human S1P1 receptor [1]): <5

**Q.** Which results are given for Cc1cc(OCc2ccccc2F)ccc1-c1nc2c(o1)CCN(CCCC(=O)O)C2 [Compound 89, 4-{2-[4-(2-Fluoro-benzyloxy)-2-methyl-phenyl]-6,7-dihydro-H-oxazolo[4,5-c]pyridine-5-yl}-butyric acid]?
**A.** S1P3 pEC50 (human S1P3 receptor): <5.0; S1P5 pEC50 (human S1P5 receptor): 8.2; S1P1^B pEC50 (human S1P1 receptor [2]): 5.9

**Q.** For O=C(O)CCCN1CCc2oc(-c3ccc(OCc4ccc(Cl)c(Cl)c4)cc3F)nc2C1 [Compound 227, 4-{2-[4-(3,4-Dichloro-benzyloxy)-2-fluoro-phenyl]-6,7-dihydro-H-oxazolo[4,5-c]pyridine-5-yl}-butyric acid], which “S1P3 pEC50” value (human S1P3 receptor) is on record?
**A.** <6.0

**Q.** And the “S1P5 pEC50” value (human S1P5 receptor)?
**A.** 8.5

**Q.** And the “S1P1^B pEC50” value (human S1P1 receptor [2])?
**A.** 6.0

**Q.** Which “S1P3 pEC50” value (human S1P3 receptor) does the source give for CC(CN1CCc2oc(-c3ccc(OCc4ccc(C(F)(F)F)cc4)cc3F)nc2C1)C(=O)O (stereo not drawn) [Compound 271, 3-{2-[4-(4-Trifluoromethyl-benzyloxy)-2-fluoro-phenyl]-6,7-dihydro-H-oxazolo[4,5-c]pyridine-5-yl}-2-methyl-propionic acid] here?
**A.** 5.4

**Q.** And the “S1P5 pEC50” value (human S1P5 receptor)?
**A.** 8.0

**Q.** What about the “S1P1^B pEC50” value (human S1P1 receptor [2]) of the same compound?
**A.** 6.2

**Q.** What does the source list for CC(CC(=O)O)N1CCc2oc(-c3ccc(OCc4ccccc4)cc3)cc2C1 (stereo not drawn) [Compound 76, 3-{2-[4-Benzyloxy-phenyl]-6,7-dihydro-4H-furo[3,2-c]pyridine-5-yl}-butyric acid]?
**A.** EC50 (human S1P3 receptor): > 10000 nM; EC50 (human S1P5 receptor): 7.94 nM; EC50 (human S1P1 receptor [2]): 251 nM

**Q.** For O=C(O)CCCN1CCc2oc(-c3ccc(OCc4cccc(F)c4F)cc3)nc2C1 [Compound 57], which “S1P3 pEC50” value (human S1P3 receptor) is on record?
**A.** <5

**Q.** What about the “S1P5 pEC50” value (human S1P5 receptor) of the same compound?
**A.** 8.0

**Q.** And the “S1P1^B pEC50” value (human S1P1 receptor [2])?
**A.** <5.5

**Q.** What does the source list for O=C(O)C1CC(N2CCc3oc(-c4ccc(OCc5ccc(F)c(F)c5)cc4)nc3C2)C1 (stereo not drawn) [Compound 277, 3-{2-[4-(3,4-Difluorobenzyloxy)-phenyl]-6,7-dihydro-H-oxazolo[4,5-c]pyridine-5-yl}-cyclobutane carboxylic acid]?
**A.** S1P3 pEC50 (human S1P3 receptor): <5.0; S1P5 pEC50 (human S1P5 receptor): 8.5; S1P1^A pEC50 (human S1P1 receptor [1]): 5.2

**Q.** Which results are given for O=C(O)CCCN1CCc2oc(-c3ccc(OCc4ccccc4F)cc3F)cc2C1 [Compound 73, 4-{2-[4-(2-Fluoro-benzyloxy)-2-fluoro-phenyl]-6,7-dihydro-4H-furo[3,2-c]-pyri-dine-5-yl}-butyric acid]?
**A.** S1P3 pEC50 (human S1P3 receptor): 6.3; S1P5 pEC50 (human S1P5 receptor): 8.2; S1P1^B pEC50 (human S1P1 receptor [2]): 8.0

**Q.** Which results are given for CC(CN1CCc2oc(-c3ccc(OCc4ccc(Cl)cc4)cc3)cc2C1)C(=O)O (stereo not drawn) [Compound 77, 3-{2-[4-(4-Chloro-benzyloxy)-phenyl]-6,7-dihydro-4H-furo[3,2-c]pyridine-5-yl}-2-methyl-propionic acid]?
**A.** EC50 (human S1P3 receptor): 794 nM; EC50 (human S1P5 receptor): 3.98 nM; EC50 (human S1P1 receptor [2]): 31.6 nM

**Q.** With O=C(O)CCN1CCc2oc(-c3ccc(OCc4ccccc4F)cc3)cc2C1 [Compound 33, 3-{2-[4-(2-Fluoro-benzyloxy)-phenyl]-6,7-dihydro-4H-furo[3,2-c]pyridine-5-yl}-propionic acid] as the compound, how does the EC50 (human S1P3 receptor) read?
**A.** 3160 nM

**Q.** What about the EC50 (human S1P5 receptor) of the same compound?
**A.** 15.8 nM

**Q.** What about the EC50 (human S1P1 receptor [2]) of the same compound?
**A.** 100 nM

**Q.** What does the source list for O=C(O)CCCN1CCc2oc(-c3ccc(OCc4ccccc4F)c(Cl)c3)nc2C1 [Compound 283, 4-{2-[4-(2-Fluoro-benzyloxy)-3-chloro-phenyl]-6,7-dihydro-H-oxazolo[4,5-c]pyridine-5-yl}-butyric acid]?
**A.** S1P3 pEC50 (human S1P3 receptor): <5; S1P5 pEC50 (human S1P5 receptor): 7.7; S1P1^A pEC50 (human S1P1 receptor [1]): <4.5

From US9670220B2, “Fused heterocyclic derivatives as S1P modulators” (Abbvie B.V., priority 2010, dated 2017)
